Assay results: ChEMBL document CHEMBL2346525, “Diastereotopic and deuterium effects in gemini” (J Med Chem, 2013)
Calls of active or inactive are those of the source. No cut-off for these calls is given here.

Species: Homo sapiens
Assay: Cytotoxicity against human ER negative MCF10CA1a cells assessed as growth inhibition after 3 days by [3H]thymidine incorporation assay
Format: functional, cell-based
Settings: tested as the 2H-labelled form

Row | SMILES | growth inhibition (GI)
1 | CC(C)(O)CCCC(CCCC(C)(C)O)[C@H]1CC[C@H]2/C(=C/C=C3C[C@@H](O)C[C@H](O)C3)CCC[C@]12C | Active
2 | C=C1/C(=C\C=C2/CCC[C@]3(C)[C@@H](C(CCCC(C)(C)O)CCCC(C)(C)O)CC[C@@H]23)C[C@@H](O)C[C@@H]1O | Active
